Data: patent publication US10967038B2, “Use of cell-permeable peptide inhibitors of the JNK signal transduction pathway for the treatment of chronic or non-chronic inflammatory eye diseases” (priority 2010, dated 2021)

Experiments:
Format in all cases: in vivo, rat
chemokines/cytokines = assay: Chemokine/Cytokine Multiplex Assay on ocular fluids and sera
Protocol: Aqueous humor and vitreous were collected and pooled from each enucleated eye. Ocular fluids were immediately centrifuged and the cell-free fractions were collected and frozen at −20° C. before analysis by Multiplex assay. Blood samples were first clotted at room temperature for 2 hours and then at 4° C. overnight. Serum was collected, centrifuged and the clear supernatant was collected and frozen at −20° C. before Multiplex analysis.
In a first set of experiment, 70 rats were randomized into 14 experimental groups with 5 rats per group. Uveitis was induced in each group and rats were killed 6 hours (4 groups), 24 hours (6 groups) and 48 hours (4 groups) after LPS challenge. For each time point tested (i.e. 6 h, 24 h and 48 h), rats treated by intravenous or intravitreous injections of vehicle (NaCl 0.9%) or the JNK-inhibitor (poly-)peptide of SEQ ID NO: 11 were compared to untreated control uveitic rats. Two additional groups, treated by intravenous injection of vehicle and intravitreal injection of dexamethasone were used at 24 hours. Clinical ocular inflammation was recorded only at 24 hours (see Scoring of Endotoxin-Induced Uveitis (EIU) section). At each time point, intraocular fluids from each eye (n=10 per group) and serum from each animal (n=5 per group) were used for Chemokine/Cytokine Multiplex Assay.
Intraocular fluids (diluted to obtain a final volume of 25 μL) and sera (25 μL of 1:5 dilution) were subjected to multiplex bead analysis. This method uses microspheres as the solid support for immunoassays12 and allows the titration of a greater number of cytokines with increased sensitivity than occurs with ELISA.13 For each sample, seventeen analytes were quantified simultaneously using the rat Cytokine/Chemokine-17plex kit (Milliplex Map Kit, Millipore, Saint-Quentin-en-Yvelines, France) according to the manufacturer's instructions: Chemokines MCP-1/CCL2, MIP-1α/CCL3, RANTES/CCL5, IP-10/CXCL10 (IFN-inducible protein-10) and GRO/KC; proinflammatory mediators IL-1[…], IL-18 and TNF-[…]; Th1/Th2/Th17 cytokines IL-2 and IFN-[…]/IL-4, IL-5, IL-6, IL-10 and IL-13/IL-17. The assay was performed in a 96-well filter plate and standard curves for each cytokine were generated with a Rat Cytokine Standard provided in the kit. All incubation steps were performed under medium orbital agitation and in the dark to protect the beads from light. Data acquisition and analysis were performed with the manager software version 4.1 (Bioplex; Bio-Rad) with four or five logistic parameters for standard curves. Detection thresholds for all the analytes were estimated around 1 to 10 pg/mL.

[1] = test system: phospho-p44/42 MAPK (Erk1/2); assay: Immunohistochemistry of phospho-p44/42 MAPK (Erk1/2) in EIU eyes; conditions: 24 h
Protocol: (§1) A second set of experiment was designed to evaluate the anti-inflammatory effect of the JNK-inhibitor (poly-)peptide of SEQ ID NO: 11 at the cellular and tissue level as well as the biodistribution of this molecule 24 hours after administration. Rats were randomized into 11 experimental groups. 6 groups of rats with uveitis: untreated uveitic rats, rats injected intravenously with NaCl or the JNK-inhibitor (poly-)peptide of SEQ ID NO: 11 and rats injected intravitreously with the vehicle, the JNK-inhibitor (poly-)peptide of SEQ ID NO: 11 or dexamethasone. The 5 additional groups without uveitis were: untreated healthy rats, rats treated by NaCl IV or the JNK-inhibitor (poly-)peptide of SEQ ID NO: 11 IV and rats injected IVT with NaCl or the JNK-inhibitor (poly-)peptide of SEQ ID NO: 11. Three eyes from separate rats were collected per group and used for immunohistochemistry.
To analyze the ERK and p38 MAPK pathways, blots were sequentially incubated with a rabbit phospho-p44/42 MAPK (Erk1/2) (Thr202/Tyr204) (4370) primary antibody (or rabbit phospho-p38 MAPK (Thr180/Tyr182) (9215) antibody) and a horseradish peroxidase-conjugated goat anti-rabbit IgG (H+L) (PI-1000—Vector Laboratories, Clinisciences, Montrouge, France) secondary antibody at dilution 1:5000. […]

[2] = Ocular biodistribution by immunohistochemistry against SEQ ID NO: 11
Protocol: For immunohistochemistry, eyeballs were collected and fixed for 1 h at room temperature in phosphate buffered saline (PBS) containing 4% paraformaldehyde before being rinsed overnight in PBS. The next day, samples were embedded and frozen in optimal cutting-temperature (OCT) compound (Tissue-Tek®, Sakura Finetek, Zoeterwoude, Netherland) and stored at −80° C. Frozen antero-posterior sections of eyes (10 μm thick) were performed at the optic nerve level using a cryostat (Leica CM 3050S, Rueil-Malmaison, France) and mounted on super-frost slides for immunohistochemical analysis.
as §1
Immunostaining of the JNK-inhibitor (poly-)peptide of SEQ ID NO: 11 was performed on healthy and uveitic eyes to study its ocular biodistribution after systemic or local administration. Briefly, sections were permeabilized as described above before being sequentially incubated with an anti-SEQ ID NO: 11 purified rabbit IgG and a secondary Alexa 594 (red)-conjugated goat anti-rabbit IgG (Invitrogen, Cergy Pontoise, France) diluted 1:100 and 1:250 in PBS respectively. Immunostaining of untreated healthy and uveitic eyes were used as negative controls. Nuclei were stained with DAPI before mounting and observation.

[3] = test system: inducible nitric oxide synthase (iNOS); assay: iNOS expression in ocular tissues (immunohistochemistry, semi-quantitative RT-PCR); conditions: IV or IVT, 24 h, vs control eyes
Protocol: Retinas and RPE/choroid/sclera complexes were also collected at 24 hours to analyze iNOS mRNA levels by RT-PCR and c-Jun phosphorylation state by Western-Blot. Tissues were collected only from eyes treated by IV (intravenous) injection of vehicle, IV injection of the JNK-inhibitor (poly-)peptide of SEQ ID NO: 11, IVT (intravitreal) injection of vehicle and IVT injection of the JNK-inhibitor (poly-)peptide of SEQ ID NO: 11 (n=2 eyes per condition collected from separate rats). Eyes were selected so that their EIU clinical score was representative of the mean of the experimental group they belong to, i.e 3 for eyes treated by IV and IVT injection of vehicle and 2 for eyes treated by IV or IVT injection of the JNK-inhibitor (poly-)peptide of SEQ ID NO: 11.
To characterize the cellular infiltrate, sections were double-stained with ED1 and iNOS. […] After staining nuclei with DAPI (Sigma-Aldrich, Saint-Quentin Fallavier, France), sections were mounted in PBS/Glycerol (1/1) and observed by fluorescence photomicroscopy (FXA, Microphot, Nikon, Melville, USA). […] ED1 positive cells and polymorphonuclear cells, identified by the shape of their nuclei stained with DAPI, were quantified on histological sections. […] Results were expressed as mean±standard error of the mean (SEM). […]

[4] = ocular fluids, IV injection, at 6 and 24 hours
[5] = ocular fluids, IV injection, at different time points
[6] = ocular fluids, IVT injection, at 6 hours, vs vehicle IVT
[7] = ocular fluids, IVT injection, at 24 hours, vs vehicle IVT
[8] = ocular fluids, treated versus untreated eyes, any tested time point

In the case of `CC(C)C[C@@H](NC(=O)[C@@H](Cc1ccccc1)NC(=O)[C@H]1CCCN1C(=O)[C@@H](CCC(N)=O)NC(=O)[C@H](NC(=O)[C@H]1CCCN1C(=O)[C@@H](CCCNC(=N)N)NC(=O)[C@@H](CO)NC(=O)[C@@H](CCC(N)=O)NC(=O)[C@H](N)CC(=O)O)C(C)C)C(=O)N[C@H](CC(N)=O)C(=O)N[C@H](CC(C)C)C(=O)N[C@@H](C(=O)N[C@@H](C(=O)N1CCC[C@@H]1C(=O)N[C@H](CCCNC(=N)N)C(=O)N[C@H](CCCCN)C(=O)N1CCC[C@@H]1C(=O)N[C@H](CCCNC(=N)N)C(=O)N1CCC[C@@H]1C(=O)N1CCC[C@@H]1C(=O)N[C@H](CCCNC(=N)N)C(=O)N[C@H](CCCNC(=N)N)C(=O)N[C@H](CCCNC(=N)N)C(=O)N[C@H](CCC(N)=O)C(=O)N[C@H](CCCNC(=N)N)C(=O)N[C@H](CCCNC(=N)N)C(=O)N[C@H](CCCCN)C(=O)N[C@H](CCCCN)C(=O)N[C@H](CCCNC(=N)N)C(=O)NCC(=O)O)[C@H](C)O)[C@H](C)O` [SEQ ID NO: 11], the MCP-1 level (chemokines/cytokines; [4]) is reported as “significant reduction”, the MIP-1α level (chemokines/cytokines; [4]) is reported as “significant reduction” and the RANTES level (chemokines/cytokines; [4]) is reported as “significant reduction”. The GRO/KC level (chemokines/cytokines; ocular fluids, IV injection, at 6 hours) was “significantly reduced”, the IL-10 level (chemokines/cytokines; ocular fluids, IV injection, at 6 hours, not significantly) was “tended to increase” and the IL-6 level (chemokines/cytokines; [5]) was “significantly reduced”. For the same molecule, the INF-γ level (chemokines/cytokines; [5]) was “significantly reduced”, the TNF-α level (chemokines/cytokines; [5]) was “significantly reduced” and the IL-2 level (chemokines/cytokines; [6]) was “a trend to a decrease”. The IL-6 level (chemokines/cytokines; [6]) was “a trend to a decrease”, the MCP-1 level (chemokines/cytokines; [6]) was “a trend to a decrease” and the TNF-α level (chemokines/cytokines; [6]) was “a trend to a decrease”. For the same molecule, the IL-2 level (chemokines/cytokines; [7]) was “marked decrease”, the IL-13 level (chemokines/cytokines; [7]) was “increase” and the IL-1β level (chemokines/cytokines; [8]) was “did not differ”. The IL-4 level (chemokines/cytokines; [8]) was “did not differ”, the IL-18 level (chemokines/cytokines; [8]) was “did not differ” and the “IL-2 level (tended to be reduced)” value (chemokines/cytokines; serum, IV administration) was “not statistically significant”. For the same molecule, the “MIP-1α level (tended to be reduced)” value (chemokines/cytokines; serum, IV administration) was “not statistically significant”, the “IL-2 level (tended to be reduced)” value (chemokines/cytokines; serum, IVT administration) was “not statistically significant” and the “effect on p-Erk1/2 signal in iris epithelium” value ([1]; iris) was “no effect”. The “effect on p-Erk1/2 signal in retinal Müller glial (RMG) cells” value ([1]; neuroretina, IV or IVT) was “no effect”, the “distribution in ocular tissues (immunoreactivity)” value (shortened to “distribution in ocular tissues”) ([2]; EIU eyes, 24 h after IV injection, occasional infiltrating inflammatory cells immunopositive) was “not detected in ocular tissues” and the “distribution in ocular tissues” value ([2]; healthy eyes, 24 h after IV injection, 20 μg/kg) was “no signal was observed”. For the same molecule, the “inflammatory cell infiltration in healthy eyes” value ([2]; healthy eyes, 24 h after IV or IVT) was “No inflammatory cell infiltration was observed”, the “distribution in ocular tissues” value ([2]; healthy eyes, 24 h after IVT injection, 0.2 μg/injection) was “distributed in almost all ocular tissues” and the “distribution in ocular tissues” value ([2]; uveitic eyes, 24 h after IVT injection, also in mobilized resident cells (microglial)) was “mostly found in ocular tissues like in healthy eyes”. The “number of iNOS positive cells” value [3] was “reduced”.
